Values after ≈ are worked out from the molar mass of the structure shown.
Columns and labels:
K. pneumoniae ATCC 13883 [1] = experiment: Agar well diffusion, K. pneumoniae; type: cell-based; details: Klebsiella pneumoniae, ATCC13883; 100 μl of test compound 20 mg/ml in DMF; ciprofloxacin and fluconazole 30 μg/ml; 24 h; mean ± SD; read-out: diameters of inhibition zone, K. pneumoniae ATCC 13883
Method: (§1) The antimicrobial activity was tested against Gram positive bacteria: Bacillus cereus (B. cereus ATCC 6629), Bacillus subtilis (B. subtilis ATCC 6633), Staphylococcus aureus (S. aureus ATCC 6538), Gram negative bacteria: Klebsiella pneumoniae (K. pneumoniae ATCC 13883), Pseudomonas aeruginosa (P. aeruginosa ATCC 27953) and Candida albicans (C. albicans ATCC 10231). Glycerol stocks were thawed upon need and propagated into nutrient broth at 37 °C. The antibacterial activity of the compounds 9-32 was carried out in vitro using the agar well diffusion method, originally reported by […] and Bauer and coworkers and described by the National Committee for Clinical Laboratory Standards (NCCLS). Bacterial strains, adjusted at […] (equivalent to 0.5 McFarland), were used to inoculate nutrient agar plates. 9-mm diameter wells were punched into the solidified nutrient agar plates using sterile cork borer and 100 μl samples of the test compounds, dissolved in dimethyl formamide (DMF) at 20 mg/ml concentrations, were added and allowed to diffuse at 4 °C for 2 h. Subsequently, the plates were incubated overnight in an upright position at 37 °C. DMF was used as a negative control while ciprofloxacin and fluconazole (30 μg/ml) served as positive controls. After 24 h incubation, the diameters of the growth inhibition zones were recorded in mm. Data was expressed as mean ± standard deviation of three replicates.

P. aeruginosa ATCC 27953 [2] = experiment: MIC determination, P. aeruginosa; type: cell-based, Pseudomonas aeruginosa; details: serial dilutions, triplicate; for MIC: Pseudomonas aeruginosa, ATCC27953
Method: (§2) Serial dilutions of the test compounds were tested to determine their MIC against the most susceptible organisms. The MIC was expressed as the lowest concentration which inhibited the visible growth of the corresponding microorganism. All assays were performed in triplicate.

B. cereus ATCC 6629 [3] = experiment: Agar well diffusion, B. cereus; type: cell-based; details: Bacillus cereus, ATCC6629; 100 μl of test compound 20 mg/ml in DMF; ciprofloxacin and fluconazole 30 μg/ml; 24 h; mean ± SD; read-out: diameters of inhibition zone, B. cereus ATCC 6629
Method: as §1

K. pneumoniae ATCC 13883 [4] = experiment: MIC determination, K. pneumoniae; type: cell-based, Klebsiella pneumoniae; details: serial dilutions, triplicate; for MIC: Klebsiella pneumoniae, ATCC13883
Method: as §2

B. subtilis ATCC 6633 [5] = experiment: MIC determination, B. subtilis; type: cell-based, Bacillus subtilis; details: serial dilutions, triplicate; for MIC: Bacillus subtilis, ATCC6633
Method: as §2

P. aeruginosa ATCC 27953 [6] = experiment: Agar well diffusion, P. aeruginosa; type: cell-based; details: Pseudomonas aeruginosa, ATCC27953; 100 μl of test compound 20 mg/ml in DMF; ciprofloxacin and fluconazole 30 μg/ml; 24 h; mean ± SD; read-out: diameters of inhibition zone, P. aeruginosa ATCC 27953
Method: as §1

B. subtilis ATCC 6633 [7] = experiment: Agar well diffusion, B. subtilis; type: cell-based; details: Bacillus subtilis, ATCC6633; 100 μl of test compound 20 mg/ml in DMF; ciprofloxacin and fluconazole 30 μg/ml; 24 h; mean ± SD; read-out: diameters of inhibition zone, B. subtilis ATCC 6633
Method: as §1

Cell viability MTT assay = type: cell-based; details: human, BJ1 cells (normal skin fibroblasts)
Method: Cell viability testing at 5 mg/ml was carried out by colorimetric MTT assay on human normal cell line BJ1 (skin fibroblasts) to investigate the toxicity of the most broad spectrum derivatives 9, 15, 16, 18, 19, 20 and 29 (Table 3). The viability of the cells treated with the aforementioned derivatives was more than 87% at 5 mg/ml concentration. This gives indication that the compounds are tolerated and nontoxic for human cells, as the cytotoxic dose was higher than the therapeutic dose on most of microorganisms. It is worth mentioning that the safe limit of the percent of dead cells is not an absolute value and could be more than 10% as reported in previous studies.
The most broad spectrum compounds were evaluated for their cytotoxic activity against BJ1 cell line using colorimetric MTT [3-(4,5-dimethylthiazol-2-yl)-2,5-diphenyltetrazolium bromide] assay.

B. cereus ATCC 6629 [8] = experiment: MIC determination, B. cereus; type: cell-based, Bacillus cereus; details: serial dilutions, triplicate
Method: as §2

C. albicans ATCC 10231 [9] = experiment: Agar well diffusion, C. albicans; type: cell-based; details: Candida albicans, ATCC10231; 100 μl of test compound 20 mg/ml in DMF; ciprofloxacin and fluconazole 30 μg/ml; 24 h; mean ± SD; read-out: diameters of inhibition zone, C. albicans ATCC 10231
Method: as §1

C. albicans ATCC 10231 [10] = experiment: MIC determination, C. albicans; type: cell-based, Candida albicans; details: serial dilutions, triplicate
Method: as §2

SMILES | melting point [°C] | zone of inhibition at 20000 µg/mL (K. pneumoniae ATCC 13883 [1]) [mm] | zone of inhibition at 20000 µg/mL (P. aeruginosa ATCC 27953 [6]) [mm] | zone of inhibition at 20000 µg/mL (B. subtilis ATCC 6633 [7]) [mm] | zone of inhibition at 20000 µg/mL (C. albicans ATCC 10231 [9]) [mm] | further results
CCN(CC)Cc1nc2ccccc2c(=O)n1N=Cc1ccccc1 [Compound 9, 3-(Benzylideneamino)-2-[(diethylamino)methyl]quinazolin-4(3H)-one] | 78 | 12 ± 0.17 | 21 ± 0.36 | 15 ± 0.25 |  | MIC (P. aeruginosa ATCC 27953 [2]): 2000 mg/L (≈ 5.98 mM); MIC, P. aeruginosa ATCC 27953 (P. aeruginosa ATCC 27953 [2]): 2000 ± 290 mg/L (≈ 5.98 mM); zone of inhibition at 20000 µg/mL (B. cereus ATCC 6629 [3]): 14 ± 0.09 mm; MIC (K. pneumoniae ATCC 13883 [4]): 1500 ± 60 mg/L (≈ 4.49 mM); MIC (B. subtilis ATCC 6633 [5]): 2000 mg/L (≈ 5.98 mM); viability at 5 mg/ml (Cell viability MTT assay): 91.5 ± 2.21%; MIC (B. cereus ATCC 6629 [8]; Bacillus cereus, ATCC6629): 1000 mg/L (≈ 2.99 mM); MIC, B. cereus ATCC 6629 (B. cereus ATCC 6629 [8]): 1000 ± 0 mg/L (≈ 2.99 mM)
CCN(CC)Cc1nc2ccccc2c(=O)n1N=Cc1ccc(Cl)cc1 [Compound 10, 3-[(4-Chlorobenzylidene)amino]-2-[(diethylamino)methyl]quinazolin-4(3H)-one] | 124 | 15 ± 0.15 |  |  |  | 
CCN(CC)Cc1nc2ccccc2c(=O)n1N=Cc1ccc(C)cc1 [Compound 11, 2-[(Diethylamino)methyl]-3-[(4-methylbenzylidene)amino]quinazolin-4(3H)-one] | 74 |  |  | 14 ± 0.16 |  | 
CCN(CC)Cc1nc2ccccc2c(=O)n1N=Cc1ccc(OC)cc1 [Compound 12, 2-[(Diethylamino)methyl]-3-[(4-methoxybenzylidene)amino]quinazolin-4(3H)-one] | 102 to 104 |  | 18 ± 0.27 |  |  | 
CCN(CC)Cc1nc2ccccc2c(=O)n1N=Cc1cc(OC)c(OC)c(OC)c1 [Compound 13, 2-[(Diethylamino)methyl]-3-[(3,4,5-trimethoxybenzylidene)amino]quinazolin-4(3H)-one] | 116 | 12 ± 0.07 | 20 ± 0.18 |  | 12 ± 0.28 | 
CCN(CC)Cc1nc2ccccc2c(=O)n1N=Cc1ccc([N+](=O)[O-])cc1 [Compound 14, 2-[(Diethylamino)methyl]-3-[(4-nitrobenzylidene)amino]quinazolin-4(3H)-one] | 155 |  |  |  | 12 ± 0.37 | 
Cc1ccc(C=Nn2c(CN3CCCC3)nc3ccccc3c2=O)cc1 [Compound 17, 3-[(4-Methylbenzylidene)amino]-2-(pyrrolidin-1-ylmethyl)quinazolin-4(3H)-one] | 156 |  | 16 ± 0.22 |  |  | 
O=c1c2ccccc2nc(CN2CCCCC2)n1N=Cc1ccccc1 [Compound 21, 3-(Benzylideneamino)-2-(piperidin-1-ylmethyl)quinazolin-4(3H)-one] | 98 | 12 ± 0.15 |  | 17 ± 0.14 |  | zone of inhibition at 20000 µg/mL (B. cereus ATCC 6629 [3]): 12 ± 0.16 mm
O=c1c2ccccc2nc(CN2CCCCC2)n1N=Cc1ccc(Cl)cc1 [Compound 22, 3-[(4-Chlorobenzylidene)amino]-2-(piperidin-1-ylmethyl)quinazolin-4(3H)-one] | 130 |  |  | 10 ± 0.07 |  | 
Cc1ccc(C=Nn2c(CN3CCCCC3)nc3ccccc3c2=O)cc1 [Compound 23, 3-[(4-Methylbenzylidene)amino]-2-(piperidin-1-ylmethyl)quinazolin-4(3H)-one] | 124 |  |  |  | 11 ± 0.13 | 
COc1ccc(C=Nn2c(CN3CCCCC3)nc3ccccc3c2=O)cc1 [Compound 24, 3-[(4-Methoxylbenzylidene)amino]-2-(piperidin-1-ylmethyl)quinazolin-4(3H)-one] | 138 | 12 ± 0.14 | 14 ± 0.21 |  |  | 
COc1cc(C=Nn2c(CN3CCCCC3)nc3ccccc3c2=O)cc(OC)c1OC [Compound 25, 2-(Piperidin-1-ylmethyl)-3-[(3,4,5-trimethoxybenzylidene)amino]quinazolin-4(3H)-one] | 112 to 114 | 14 ± 0.17 | 21 ± 0.17 |  |  | 
O=c1c2ccccc2nc(CN2CCCCC2)n1N=Cc1ccc([N+](=O)[O-])cc1 [Compound 26] | 180 to 182 | 11 ± 0.07 |  | 12 ± 0.11 |  | 
O=c1c2ccccc2nc(CN2CCOCC2)n1N=Cc1ccccc1 [Compound 27, 3-(Benzylideneamino)-2-(morpholinomethyl)quinazolin-4(3H)-one] | 132 | 14 ± 0.16 |  | 14 ± 0.15 | 13 ± 0.09 | 
O=c1c2ccccc2nc(CN2CCOCC2)n1N=Cc1ccc(Cl)cc1 [Compound 28, 3-[(4-Chlorobenzylidene)amino]-2-(morpholinomethyl)quinazolin-4(3H)-one] | 140 to 142 | 16 ± 0.18 |  | 12 ± 0.2 |  | 
Cc1ccc(C=Nn2c(CN3CCOCC3)nc3ccccc3c2=O)cc1 [Compound 29, 3-[(4-Methylbenzylidene)amino]-2-(morpholinomethyl)quinazolin-4(3H)-one] | 128 | 20 ± 0.15 | 14 ± 0.16 | 14 ± 0.06 | 13 ± 0.07 | MIC (P. aeruginosa ATCC 27953 [2]): 1500 mg/L (≈ 4.14 mM); MIC (K. pneumoniae ATCC 13883 [4]): 2500 mg/L (≈ 6.9 mM); MIC, K. pneumoniae ATCC 13883 (K. pneumoniae ATCC 13883 [4]): 2500 ± 500 mg/L (≈ 6.9 mM); MIC (B. subtilis ATCC 6633 [5]): 500 mg/L (≈ 1.38 mM); MIC, B. subtilis ATCC 6633 (B. subtilis ATCC 6633 [5]): 500 ± 60 mg/L (≈ 1.38 mM); MIC (C. albicans ATCC 10231 [10]; Candida albicans, ATCC10231): 5000 mg/L (≈ 13.8 mM); MIC, C. albicans ATCC 10231 (C. albicans ATCC 10231 [10]): 5000 ± 290 mg/L (≈ 13.8 mM); viability at 5 mg/ml (Cell viability MTT assay): 87.6 ± 3.61%
COc1cc(C=Nn2c(CN3CCOCC3)nc3ccccc3c2=O)cc(OC)c1OC [Compound 31, 2-(Morpholinomethyl)-3-[(3,4,5-trimethoxybenzylidene)amino]quinazolin-4(3H)-one] | 155 |  |  |  |  | 
O=c1c2ccccc2nc(CN2CCOCC2)n1N=Cc1ccc([N+](=O)[O-])cc1 [Compound 32, 2-(Morpholinomethyl)-3-[(4-nitrobenzylidene)amino]quinazolin-4(3H)-one] | 200 |  | 18 ± 0.09 | 14 ± 0.27 |  | 
OC(Cn1cncn1)(Cn1cncn1)c1ccc(F)cc1F [Fluconazole, reference compound] |  |  |  |  | 20 ± 0.18 | 
